In patent US20030027867A1, “Use of R-NSAID compounds for anti-HIV treatment” (Myriad Genetics, Incorporated, priority 2001, published 2003):

Tests used:
in vitro = type: cell-based; details: human
Description: At assay termination the assay plates were stained with the soluble tetrazolium-based dye MTS (CellTiter Reagent, Promega) to determine cell viability and quantify compound toxicity. MTS is metabolized by the mitochondria enzymes of metabolically active cells to yield a soluble formazan product, allowing the rapid quantitative analysis cell viability and compound cytotoxicity. […] At termination of the assay, 20 μl of MTS reagent was added per well. The wells were incubated overnight for the HIV cytoprotection assay at 37° C. The incubation intervals were chosen based on empirically determined times for optimal dye reduction in each cell type. Adhesive plate sealers were used in place of the lids, the sealed plate was inverted several times to mix the soluble formazan product and the plate was read spectrophotometrically at 490 nm with a Molecular Devices Vmax plate reader.

HIV-1 [1] = details: TC50/IC50 in human PBMCs
Description: (§1) R-flurbiprofen was supplied in powder form from Catalytica Pharmaceutical Inc., Greenville, N.C. and was solubilized in DMSO to yield a 200 mM stock solution. For these studies, the compound was tested at a high-test concentration of 1000 μM along with eight serial half-logarithmic dilutions (1000 μM down to 0.01 μM). AZT was used as a positive control antiviral compound.
(§2) Fresh human blood was obtained commercially from Interstate Blood Bank, Inc. (Memphis, Tenn.). […] The laboratory-adapted HIV-1IIIB strain was propagated and tittered in fresh human PBMCs; pre-titered aliquots of HIV-1ROJO and Hiv-1IIIB were removed from the freezer (−80° C.) and thawed rapidly to room temperature in a biological safety cabinet immediately before use. Phytohemagglutinin (PHA-P) was obtained from Sigma (St. Louis, Mo.) and recombinant IL-2 was obtained from Amgen (San Francisco, Calif.).
(§3) Fresh human PBMCs were isolated from screened donors, seronegative for HIV and HBV. Leukophoresed blood was diluted 1:1 with Dulbecco's phosphate buffered saline (PBS), layered over 14 mL of Ficoll-Hypaque density gradient in a 50 mL centrifuge tube and then centrifuged for 30 minutes at 600×g. Banded PBMCs were aspirated from the resulting interface and subsequently washed 2× with PBS by low speed centrifugation. After the final wash, cells were enumerated by trypan blue exclusion and re-suspended at 1×10^7 cells/mL in RPMI 1640 supplemented with 15% Fetal Bovine Serum (FBS), 2 mM L-glutamine, 4 μg/mL PHA-P. The cells were allowed to incubate for 48-72 hours at 37° C. After incubation, PBMCs were centrifuged and reset in RPMI 1640 with 15% FBS, 2 mM L-glutamine, 100 U/ml penicillin, 100 μg/mL streptomycin, 10 μg/mL gentamycin, and 20 U/mL recombinant human IL-2. PBMCs were maintained in this medium at a concentration of 1-2×10^6 cells/mL with biweekly medium changes until used in the assay protocol.
(§4) For the standard PBMC assay, PHA-P stimulated cells from at least two normal donors were pooled, diluted in fresh medium to a final concentration of 1×10^6 cells/mL, and plated in the interior wells of 96 well round bottom microplate at 50 μL/well (5×10^4 cells/well). Test drug dilutions were prepared at a 2× concentration in microtiter tubes and 100 μL of each concentration was placed in appropriate wells in a standard format. 50 μL of a predetermined dilution of virus stock was placed in each test well (final MOI ≈0.1). Wells with cells and virus alone were used for virus control. Separate plates were prepared identically without virus for drug cytotoxicity studies using an XTT assay system. The PBMC cultures were maintained for seven days following infection, at which time cell-free supernate samples were collected and assayed for reverse transcriptase activity as described below. […]

HIV-1 [2] = test: microbe, parasite or virus in culture; details: Human immunodeficiency virus 1, PBMC, 168 h
Description: as §1, §2, §3, §4

## Cc1cn([C@H]2C[C@H](N=[N+]=[N-])[C@@H](CO)O2)c(=O)[nH]c1=O [AZT, 3′-Azido-3′-deoxythymidine]
In vitro
  CC50 at 7 days: > 4 µM
HIV-1 [1]
  Therapeutic Index: >400.00
HIV-1 [2]
  IC50: 0.01 µM

## CC(C(=O)O)c1ccc(-c2ccccc2)c(F)c1 (stereo not drawn) [R-flurbiprofen, 3-fluoro-4-phenylhydratropic acid]
In vitro
  CC50 at 7 days: 731 µM
HIV-1 [1]
  Therapeutic Index: 3.1
HIV-1 [2]
  IC50: 238 µM
